Measurements taken from PMC4399838, “Antipsychotic-Like Effect of the Muscarinic Acetylcholine Receptor Agonist BuTAC in Non-Human Primates” (PLoS ONE, 2015).
pKi: −log10 of the molar value.

Tests used:
[1] = target: T1, M4AChR (Homo sapiens, UniProt P08173); assay: Competitive radioligand binding
T1 sequence (P08173 1-479): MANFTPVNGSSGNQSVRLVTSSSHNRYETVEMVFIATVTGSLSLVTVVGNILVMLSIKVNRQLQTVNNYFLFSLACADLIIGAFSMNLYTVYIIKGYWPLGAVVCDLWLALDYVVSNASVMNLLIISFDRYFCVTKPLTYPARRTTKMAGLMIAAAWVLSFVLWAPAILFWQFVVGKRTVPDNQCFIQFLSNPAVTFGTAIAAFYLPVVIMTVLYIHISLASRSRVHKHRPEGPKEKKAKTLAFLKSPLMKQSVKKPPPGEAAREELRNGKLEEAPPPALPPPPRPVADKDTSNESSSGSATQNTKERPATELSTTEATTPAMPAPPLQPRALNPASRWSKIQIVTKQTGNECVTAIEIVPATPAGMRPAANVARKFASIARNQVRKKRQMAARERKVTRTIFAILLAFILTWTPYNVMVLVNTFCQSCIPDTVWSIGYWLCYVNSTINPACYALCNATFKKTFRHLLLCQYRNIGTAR

[2] = target: T2, human M1 muscarinic receptor (Homo sapiens, UniProt P11229); design: method as in Watt et al. 2013 [10]; conditions: ref Watt et al. 2013 [10], cited from earlier work
T2 construct: purchased PerkinElmer Life and Analytical Sciences, Boston, MA
T2 sequence (P11229 1-460): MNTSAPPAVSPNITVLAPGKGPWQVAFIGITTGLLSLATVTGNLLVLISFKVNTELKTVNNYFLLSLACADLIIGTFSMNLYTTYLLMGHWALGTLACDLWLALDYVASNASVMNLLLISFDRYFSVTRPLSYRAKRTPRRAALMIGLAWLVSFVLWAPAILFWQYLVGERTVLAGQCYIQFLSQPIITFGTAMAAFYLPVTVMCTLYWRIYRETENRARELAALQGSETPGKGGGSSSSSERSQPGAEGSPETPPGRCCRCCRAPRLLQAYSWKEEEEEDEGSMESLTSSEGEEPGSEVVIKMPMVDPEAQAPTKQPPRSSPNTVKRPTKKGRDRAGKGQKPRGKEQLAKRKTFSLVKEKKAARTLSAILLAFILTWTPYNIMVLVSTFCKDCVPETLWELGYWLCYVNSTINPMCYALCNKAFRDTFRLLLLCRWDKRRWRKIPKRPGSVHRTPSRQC

[3] = target: T3, human M3 muscarinic receptor (Homo sapiens, UniProt P20309); design: method as in Watt et al. 2013 [10]; conditions: antagonist mode, ref Watt et al. 2013 [10], cited from earlier work
T3 construct: purchased PerkinElmer Life and Analytical Sciences, Boston, MA
T3 sequence (P20309 whole entry): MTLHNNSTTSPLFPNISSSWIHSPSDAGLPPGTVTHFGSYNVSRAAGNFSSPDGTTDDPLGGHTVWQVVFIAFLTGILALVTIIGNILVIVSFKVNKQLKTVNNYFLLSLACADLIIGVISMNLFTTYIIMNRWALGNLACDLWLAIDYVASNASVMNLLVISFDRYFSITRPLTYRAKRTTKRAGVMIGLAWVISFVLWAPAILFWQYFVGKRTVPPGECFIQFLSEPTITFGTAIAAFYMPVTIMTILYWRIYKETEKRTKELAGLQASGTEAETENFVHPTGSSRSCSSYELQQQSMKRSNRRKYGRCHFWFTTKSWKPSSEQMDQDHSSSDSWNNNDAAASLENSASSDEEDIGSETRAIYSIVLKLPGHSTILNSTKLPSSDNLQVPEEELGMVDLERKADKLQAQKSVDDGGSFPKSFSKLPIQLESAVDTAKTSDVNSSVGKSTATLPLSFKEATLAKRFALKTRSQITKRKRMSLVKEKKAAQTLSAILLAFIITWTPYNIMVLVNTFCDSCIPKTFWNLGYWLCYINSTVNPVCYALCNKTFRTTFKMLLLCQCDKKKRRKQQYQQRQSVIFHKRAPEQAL

[4] = target: T4, human M5 muscarinic receptor (Homo sapiens, UniProt P08912); design: method as in Watt et al. 2013 [10]; conditions: ref Watt et al. 2013 [10], cited from earlier work
T4 construct: purchased PerkinElmer Life and Analytical Sciences, Boston, MA
T4 sequence (P08912 1-532): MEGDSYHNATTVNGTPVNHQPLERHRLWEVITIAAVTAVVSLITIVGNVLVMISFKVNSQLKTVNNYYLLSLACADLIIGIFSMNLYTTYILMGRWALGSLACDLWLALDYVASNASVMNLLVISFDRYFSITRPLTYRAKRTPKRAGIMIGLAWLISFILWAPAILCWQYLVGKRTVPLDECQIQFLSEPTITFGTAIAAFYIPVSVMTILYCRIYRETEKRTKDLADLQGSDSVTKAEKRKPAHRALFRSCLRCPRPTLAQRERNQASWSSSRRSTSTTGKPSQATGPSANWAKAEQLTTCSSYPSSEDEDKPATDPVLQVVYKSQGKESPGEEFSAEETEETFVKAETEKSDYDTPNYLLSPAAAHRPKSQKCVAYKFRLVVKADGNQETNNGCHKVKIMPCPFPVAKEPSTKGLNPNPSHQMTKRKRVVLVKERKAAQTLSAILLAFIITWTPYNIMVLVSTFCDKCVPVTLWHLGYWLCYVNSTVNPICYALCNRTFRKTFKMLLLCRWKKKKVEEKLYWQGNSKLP

[5] = agonist mode, negative log-transformed
[6] = antagonist mode, negative log-transformed

With CCCSc1nsnc1[C@H]1CN2CCC[C@H]1C2 [PTAC, (5R,6R) 6-(3-propylthio-1,2,5-thiadiazol-4-yl)-1-azabicyclo-[3.2.1]-octane] as the compound, how does the pKi [1] read?
The pKi was 9.55.

Which “Rel pEC50” value [2, 5] does the source give for CCCCSc1nsnc1[C@H]1CN2CCC[C@H]1C2 [BuTAC, (5R,6R)-6-(3-butylthio-1,2,5-thiadiazol-4-yl)-1-azabicyclo[3.2.1]octane] here?
The value was 9.22±9.80 M.

What about the “% Emax” value ([2]; agonist mode) of the same compound?
The value was 33.56±6.29%.

What about the “Rel pIC50” value [2, 6] of the same compound?
Its value is 9.03±10.01 M.

What about the “% Inhibition” value ([2]; antagonist mode) of the same compound?
The value was 57.27±2.35%.

What about the “Rel pIC50” value ([3]; negative log-transformed) of the same compound?
Its value is 8.55 ± 8.59 M.

What about the “% Inhibition” value [3] of the same compound?
Its value is 100.00 ± 0.00%.

What about the “Rel pEC50” value [4, 5] of the same compound?
Its value is 7.63 ± 7.41 M.

What about the “% Emax” value ([4]; agonist mode) of the same compound?
The value was 10.77 ± 10.87%.

And the “Rel pIC50” value [4, 6]?
Its value is 8.29 ± 8.16 M.

And the “% Inhibition” value ([4]; antagonist mode)?
The value was 96.31 ± 3.87%.
